In US7462600B2, “Macrolides” (Pfizer Inc, priority 2004, dated 2008):
≈ marks a conversion by molar mass, not a printed value.

Tests used:
Type in all cases: cell-based
[1] = tested on: Streptococcus pyogenes 1079; assay: MIC, microtiter broth dilution (NCCLS M100-S14), S. pyogenes 1079 (ermB); conditions: Streptococcus pyogenes 1079
Outline: (§1)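 Minimum inhibitory concentration by broth microdilution in trays (NCCLS M100-S14); starting stocks 40 mg/ml, DMSO.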

[2] = tested on: Streptococcus pneumoniae 1016; assay: MIC, microtiter broth dilution (NCCLS M100-S14), S. pneumoniae 1016 (susceptible); conditions: Streptococcus pneumoniae 1016
Outline: as §1

[3] = tested on: Haemophilus influenzae 1218; assay: MIC, microtiter broth dilution (NCCLS M100-S14), H. influenzae 1218 (susceptible); conditions: Haemophilus influenzae 1218
Outline: as §1

[4] = tested on: Streptococcus pneumoniae 1175; conditions: Streptococcus pneumoniae 1175; microtiter broth dilution
Outline: as §1

[5] = tested on: Streptococcus pneumoniae 1095; conditions: Streptococcus pneumoniae 1095; microtiter broth dilution
Outline: as §1

| SMILES | MIC S. pyogenes 1079 [1] [µg/mL] | MIC S. pneumo. 1016 [2] [µg/mL] | MIC H. influenzae 1218 [3] [µg/mL] | MIC S. pneumo. 1175 [4] [µg/mL] | MIC S. pneumo. 1095 [5] [µg/mL] |
| --- | --- | --- | --- | --- | --- |
| CCC1OC(=O)C(C)C(=O)C(C)C(OC2OC(C)CC(N(C)C)C2O)C(C)(OC)CC(C)C(=O)C(C)C2N(C3CN(S(=O)(=O)c4cccc(-c5cc[nH]n5)c4)C3)C(=O)OC12C (stereo not drawn) [Example 3.36, 3-descladinosyl-11,12-dideoxy-6-O-methyl-3-oxo-12,11-(oxycarbonyl-(1-(3-(1H-pyrazol-3-yl)benzenesulfonyl)-azetidin-3-yl)-imino)-erythromycin A] | 1 (≈ 1.14 µM) | <0.06 | 0.25 (≈ 0.286 µM) | <0.06 | <0.06 |
| CCC1OC(=O)C(C)C(=O)C(C)C(OC2OC(C)CC(N(C)C)C2O)C(C)(OC)CC(C)C(=O)C(C)C2N(C3CN(S(=O)(=O)c4cccnc4OC)C3)C(=O)OC12C (stereo not drawn) [Example 3.37, 2-methoxypyridine-3-sulfonyl] | 16 (≈ 19.1 µM) | <0.06 | 0.5 (≈ 0.596 µM) | <0.06 | 4 (≈ 4.77 µM) |
| CCC1OC(=O)C(C)C(=O)C(C)C(OC2OC(C)CC(N(C)C)C2O)C(C)(OC)CC(C)C(=O)C(C)C2N(C3CN(S(=O)(=O)c4ccc(OC)nc4)C3)C(=O)OC12C (stereo not drawn) [Example 3.38, 6-methoxypyridine-3-sulfonyl] | 64 (≈ 76.3 µM) | <0.06 | 0.5 (≈ 0.596 µM) | <0.06 | 1 (≈ 1.19 µM) |
| CCC1OC(=O)C(C)C(=O)C(C)C(OC2OC(C)CC(N(C)C)C2O)C(C)(OC)CC(C)C(=O)C(C)C2N(C3CN(S(=O)(=O)c4ccc(-c5ccn[nH]5)cc4)C3)C(=O)OC12C (stereo not drawn) [Example 3.39, 3-descladinosyl-11,12-dideoxy-6-O-methyl-3-oxo-12,11-(oxycarbonyl-(1-(4-(1H-pyrazol-5-yl)benzenesulfonyl)-azetidin-3-yl)-imino)-erythromycin A] | 0.25 (≈ 0.286 µM) | <0.06 | 0.5 (≈ 0.572 µM) | <0.06 | <0.06 |
| CCC1OC(=O)C(C)C(=O)C(C)C(OC2OC(C)CC(N(C)C)C2O)C(C)(OC)CC(C)C(=O)C(C)C2N(C3CN(S(=O)(=O)c4cccc(-c5cc(C)no5)c4)C3)C(=O)OC12C (stereo not drawn) [Example 3.40, 3-descladinosyl-11,12-dideoxy-6-O-methyl-3-oxo-12,11-(oxycarbonyl-1(-(3-(3-methylisoxazol-5-yl)benzenesulfonyl)-azetidin-3-yl)-imino)-erythromycin A] | 4 (≈ 4.5 µM) | <0.06 | 2 (≈ 2.25 µM) | <0.06 | <0.06 |
| CCC1OC(=O)C(C)C(=O)C(C)C(OC2OC(C)CC(N(C)C)C2O)C(C)(OC)CC(C)C(=O)C(C)C2N(C3CN(S(=O)(=O)c4cccc(-c5ncon5)c4)C3)C(=O)OC12C (stereo not drawn) [Example 3.41, 3-descladinosyl-11,12-dideoxy-6-O-methyl-3-oxo-12,11-(oxycarbonyl-(1-(3-(1,2,4-oxadiazol-3-yl)benzenesulfonyl)-azetidin-3-yl)-imino)-erythromycin A] | 8 (≈ 9.13 µM) | <0.06 | 0.25 (≈ 0.285 µM) | <0.06 | <0.06 |
| CCC1OC(=O)C(C)C(=O)C(C)C(OC2OC(C)CC(N(C)C)C2O)C(C)(OC)CC(C)C(=O)C(C)C2N(C3CN(S(=O)(=O)c4ccc5c(c4)CC(=O)N5)C3)C(=O)OC12C (stereo not drawn) [Example 3.42, 3-descladinosyl-11,12-dideoxy-6-O-methyl-3-oxo-12,11-(oxycarbonyl-(1-(2-oxoindoline-5-sulfonyl)-azetidin-3-yl)-imino)-erythromycin A] | 2 (≈ 2.32 µM) | <0.06 | 2 (≈ 2.32 µM) | 0.5 (≈ 0.579 µM) | <0.06 |
| CCC1OC(=O)C(C)C(=O)C(C)C(OC2OC(C)CC(N(C)C)C2O)C(C)(OC)CC(C)C(=O)C(C)C2N(C3CN(S(=O)(=O)c4ccc5oc(=O)[nH]c5c4)C3)C(=O)OC12C (stereo not drawn) [Example 3.43, 3-descladinosyl-11,12-dideoxy-6-O-methyl-3-oxo-12,11-(oxycarbonyl-(1-(2,3-dihydro-2-oxobenzo[d]oxazole-5-sulfonyl)-azetidin-3-yl)-imino)-erythromycin A] | 1 (≈ 1.16 µM) | <0.06 | 0.5 (≈ 0.578 µM) | 0.5 (≈ 0.578 µM) | <0.06 |
| CCC1OC(=O)C(C)C(=O)C(C)C(OC2OC(C)CC(N(C)C)C2O)C(C)(OC)CC(C)C(=O)C(C)C2N(C3CN(S(=O)(=O)c4ccc(-n5cccn5)cc4)C3)C(=O)OC12C (stereo not drawn) [Example 3.44, 3-descladinosyl-11,12-dideoxy-6-O-methyl-3-oxo-12,11-(oxycarbonyl-(1-(4-(1H-pyrazol-1-yl)benzenesulfonyl)-azetidin-3-yl)-imino)-erythromycin A] | 0.12 (≈ 0.137 µM) | <0.06 | 0.25 (≈ 0.286 µM) | <0.06 | <0.06 |
| CCC1OC(=O)C(C)C(=O)C(C)C(OC2OC(C)CC(N(C)C)C2O)C(C)(OC)CC(C)C(=O)C(C)C2N(C3CN(S(=O)(=O)c4ccc(-c5csnn5)cc4)C3)C(=O)OC12C (stereo not drawn) [Example 3.45, 3-descladinosyl-11,12-dideoxy-6-O-methyl-3-oxo-12,11-(oxycarbonyl-(1-(4-(1,2,3-thiadiazol-4-yl)benzenesulfonyl)-azetidin-3-yl)-imino)-erythromycin A] | 0.12 (≈ 0.135 µM) | <0.06 | 0.25 (≈ 0.28 µM) | <0.06 | <0.06 |
| CCC1OC(=O)C(C)C(=O)C(C)C(OC2OC(C)CC(N(C)C)C2O)C(C)(OC)CC(C)C(=O)C(C)C2N(C3CN(S(=O)(=O)c4ccc(N5CCOCC5)c(F)c4)C3)C(=O)OC12C (stereo not drawn) [Example 3.46, 3-fluoro-4-morpholinobenzenesulfonyl] | 32 (≈ 35.1 µM) | <0.06 | 2 (≈ 2.2 µM) | <0.06 | 0.5 (≈ 0.549 µM) |
| CCC1OC(=O)C(C)C(=O)C(C)C(OC2OC(C)CC(N(C)C)C2O)C(C)(OC)CC(C)C(=O)C(C)C2N(C3CN(S(=O)(=O)c4ccc(-n5nc(C)cc5C)cc4)C3)C(=O)OC12C (stereo not drawn) [Example 3.47, 4-(3,5-dimethyl-1H-pyrazol-1-yl)benzenesulfonyl] | 64 (≈ 70.9 µM) | <0.06 | 8 (≈ 8.87 µM) | <0.06 | 0.5 (≈ 0.554 µM) |
| CCC1OC(=O)C(C)C(=O)C(C)C(OC2OC(C)CC(N(C)C)C2O)C(C)(OC)CC(C)C(=O)C(C)C2N(C3CN(S(=O)(=O)c4ccc(C#N)nc4)C3)C(=O)OC12C (stereo not drawn) [Example 3.48, 6-cyanopyridine-3-sulfonyl] | >64.00 | <0.06 | 0.5 (≈ 0.6 µM) | <0.06 | 1 (≈ 1.2 µM) |
| CCC1OC(=O)C(C)C(=O)C(C)C(OC2OC(C)CC(N(C)C)C2O)C(C)(OC)CC(C)C(=O)C(C)C2N(C3CN(S(=O)(=O)c4cccc5c(C#N)cccc45)C3)C(=O)OC12C (stereo not drawn) [Example 3.49] | 0.5 (≈ 0.566 µM) | <0.06 | 0.5 (≈ 0.566 µM) | <0.06 | <0.06 |
| CCC1OC(=O)C(C)C(=O)C(C)C(OC2OC(C)CC(N(C)C)C2O)C(C)(OC)CC(C)C(=O)C(C)C2N(C3CN(S(=O)(=O)c4ccc(-n5cccn5)c(C#N)c4)C3)C(=O)OC12C (stereo not drawn) [Example 3.50] | 0.25 (≈ 0.278 µM) | <0.06 | 1 (≈ 1.11 µM) | <0.06 | <0.06 |
| CCC1OC(=O)C(C)C(=O)C(C)C(OC2OC(C)CC(N(C)C)C2O)C(C)(OC)CC(C)C(=O)C(C)C2N(C3CN(S(=O)(=O)c4ccc(-c5nnn(C)n5)cc4)C3)C(=O)OC12C (stereo not drawn) [Example 3.51, 3-descladinosyl-11,12-dideoxy-6-O-methyl-3-oxo-12,11-(oxycarbonyl-(1-(4-(2-methyl-2H-tetrazol-5-yl)benzenesulfonyl)-azetidin-3-yl)-imino)-erythromycin A] | 0.5 (≈ 0.562 µM) | <0.06 | 2 (≈ 2.25 µM) | <0.06 | <0.06 |
| CCC1OC(=O)C(C)C(=O)C(C)C(OC2OC(C)CC(N(C)C)C2O)C(C)(OC)CC(C)C(=O)C(C)C2N(C3CN(S(=O)(=O)c4ccc(-n5cncn5)cc4)C3)C(=O)OC12C (stereo not drawn) [Example 3.52, 3-descladinosyl-11,12-dideoxy-6-O-methyl-3-oxo-12,11-(oxycarbonyl-(1-(4-(1H-1,2,4-triazol-1-yl)benzenesulfonyl)-azetidin-3-yl)-imino)-erythromycin A] | 4 (≈ 4.57 µM) | <0.06 | 2 (≈ 2.29 µM) | 0.12 (≈ 0.137 µM) | 0.12 (≈ 0.137 µM) |
| CCC1OC(=O)C(C)C(=O)C(C)C(OC2OC(C)CC(N(C)C)C2O)C(C)(OC)CC(C)C(=O)C(C)C2N(C3CN(S(=O)(=O)c4ccc(-n5ccnc5)c(C)c4)C3)C(=O)OC12C (stereo not drawn) [Example 3.53, 4-(1H-imidazol-1-yl)-3-methylbenzenesulfonyl] | 64 (≈ 72.1 µM) | <0.06 | 4 (≈ 4.5 µM) | 0.25 (≈ 0.282 µM) | <0.06 |
